Measured values from patent US20260364124A1, “ANTI-C. DIFFICILE SMALL MOLECULE METABOLITES FROM DIET AND GUT MICROBIOME” (The Children's Medical Center Corporation, priority 2023, published 2026).
“Also recorded” adds a separate entry of the source.

What was measured:
B. uniformis = assay: In vitro aglycone liberation by wildtype B. uniformis (LC-MS); parameters: species or system Bacteroides uniformis ATCC 8492; settings: role: product; B. uniformis culture supplemented with glycoside, after eight hours, LC-MS EIC (FIG. 2)
From the text: Comparative LC-MS EICs (Extracted Ion Chromatogram) of methanol-water extracts of bacterial cultures supplemented with each polyphenolic glycoside after eight hours are provided. The trace labeled “A” corresponds to the EIC of each glycoside, and the trace labeled “B” corresponds to the EIC of each aglycone. The portion of the trace “B” peak overlapping the trace “A” peak corresponds to the aglycone detected from fragmentation of the glycoside at the ionization source and is a technical artifact.
FIGS. 5A and 5B show microbiome-mediated polyphenol aglycone liberation. […] Step 2: Spent media was filter-sterilized. Step 3: C. difficile was grown in spent media from either vehicle or polydatin (top).
In vitro aglycone liberation: All B. uniformis strains were grown on brain-heart-infusion supplemented with hemin (50 mg/L) and vitamin K1 (0.25 mg/L) (BHIS) agar plates or in basal media (BSG; proteose peptone (20 g/L), yeast (5 g/L), NaCl (5 g/L), glucose (5 g/L), potassium phosphate dibasic (5 g/L), cysteine (0.5 g/L), hemin (50 mg/L), and vitamin K1 (0.25 mg/L). All isolates were recovered on and grown in pre-reduced media in a Coy anaerobic chamber (Coy Labs).
To assess the capacity of Bacteroides to liberate aglycones from their parent polyphenolic glycosides, B. uniformis ATCC 8492 WT and AgshD were recovered on a BHIS agar plate and incubated anaerobically at 37 °C for 48 h. A starter culture (1 mL) of BSG was inoculated with each isolate and grown for 15 h. This starter culture was then used to inoculate a BSG sub-culture (1 mL) at a final dilution of 1:10. […]
For polyphenolic glycoside and aglycone-containing samples, samples were dried under nitrogen flow and resuspended in 50 μl of methanol 50% in water. […] Samples were quantified on a QEplus mass spectrometer coupled to an Ultimate 3000 LC (Thermo fisher). […] Quantification was performed using Tracefinder (Thermo fisher), using the ratio of the area under the peak for each compound and of the internal standard, using the accurate mass of the [M−H]^− ions.

C. difficile [1] = assay: Phytochemical microbial killing assay, panel of gut bacterial pathogens; type: cell-based, Clostridioides difficile; settings: 150 μM, media with glucose, growth ratio (AUC) vs vehicle, panel of gut bacterial pathogens (FIG. 3A)
Protocol: Growth is measured as the ratio of growth in media (AUC) supplemented with glucose and 150 μM glycoside or aglycone versus growth in media (AUC) supplemented with glucose and vehicle. Value>1 is representative of enhanced growth in compound and value<1 is representative of inhibition of growth in compound.
Phytochemical microbial killing assays: All gut pathogen isolates were grown on brain-heart-infusion supplemented with hemin (50 mg/L) and vitamin K1 (0.25 mg/L) (BHIS) agar plates or in basal media (BSG; proteose peptone (20 g/L), yeast (5 g/L), NaCl (5 g/L), glucose (5 g/L), potassium phosphate dibasic (5 g/L), cysteine (0.5 g/L), hemin (50 mg/L), and vitamin K1 (0.25 mg/L). Isolates were recovered on and grown in pre-reduced media in a Coy anaerobic chamber (Coy Labs). To determine the fitness effects of phloridzin hydrate (TCI), phloretin (TCI), polydatin (TCI), and resveratrol (TCI) on enteric pathogen fitness, each pathogen isolate was recovered on a BHIS agar plate and incubated anaerobically at 37 °C for 48 h. A starter culture (1 mL) of BSG was inoculated with C. difficile and grown for 15 h. […] Bacterial growth was monitored by measuring the optical density at 600 nm (OD600) of each culture in a 384 well plate with an Epoch2 spectrophotometer (BioTek Instruments) and MicroPlate stacker (Agilent BioTek) for 24 hours.

C. difficile [2] = assay: C. difficile infection (CDI) mouse model, C. difficile burden (CFU); type: in vivo, mouse (C57BL/6J) infected with Clostridioides difficile; settings: infected mice; for anti-microbial effect on C. difficile in vivo: 500 μM in drinking water, CFU at day one and day two (FIG. 3C); for C. difficile burden in vivo: pure compound administered (FIGS. 6A-6B)
Protocol: (§1) FIG. 3B provides a heatmap of growth of 20 Clostridioides difficile isolates in the absence of presence of the polyphenolic glycoside polydatin or the Bacteroides liberated aglycone resveratrol. […] Growth induction or inhibition is measured as the ratio of growth in media (AUC) supplemented with glucose and 150 μM polydatin or resveratrol versus growth in media (AUC) supplemented with glucose and vehicle. Value>1 is representative of enhanced growth in compound and value <1 is representative of inhibition of growth in compound.
C. difficile infection (CDI) model: An antibiotic-treatment-induced CDI mouse model developed previously was used for the infection model. Briefly, six-to eight-week-old male and female SPF C57BL/6J WT mice were treated for three days with a mixture of antibiotics including vancomycin (0.4 mg/mL, Sigma) colistin (850 U/mL, Sigma), metronidazole (0.215 mg/mL, Sigma), gentamicin (0.035 mg/mL, RPI), and kanamycin (0.045 mg/mL, Sigma) in their drinking water. Mice were then treated with regular water for two days and then injected intraperitoneal (IP) with clindamycin (10 mg/kg, Mylan Pharmaceuticals) in normal saline. After one day, mice were gavaged with […] of C. difficile M7404 diluted in PBS. Stool was collected from mice at one day and two days post infection, and immediately taken for assessment of C. difficile infection load.
C. difficile colony-forming units (CFUs): Mouse feces were collected from mice on day one and day two of C. difficile infection. Feces were weighed and resuspended to 50 mg/mL in pre-reduced 1× PBS. CFUs were enumerated by plating multiple dilutions on pre-reduced commercial ChromID C. difficile -selective plates (Biomerieux) after incubation for 24 hours at 37 °C in an anaerobic chamber (Coy Labs).

C. difficile isolates = assay: Phytochemical microbial killing assay, diverse C. difficile isolates; type: cell-based, Clostridioides difficile
Protocol: as §1
Bacterial isolates were grown in vitro in media plus compound. Killing was measured by bacterial culture optical density (proxy for amount of bacteria in a culture).
Phytochemical microbial killing assays: All gut pathogen isolates were grown on brain-heart-infusion supplemented with hemin (50 mg/L) and vitamin K1 (0.25 mg/L) (BHIS) agar plates or in basal media (BSG; proteose peptone (20 g/L), yeast (5 g/L), NaCl (5 g/L), glucose (5 g/L), potassium phosphate dibasic (5 g/L), cysteine (0.5 g/L), hemin (50 mg/L), and vitamin K1 (0.25 mg/L). Isolates were recovered on and grown in pre-reduced media in a Coy anaerobic chamber (Coy Labs). To determine the fitness effects of phloridzin hydrate (TCI), phloretin (TCI), polydatin (TCI), and resveratrol (TCI) on enteric pathogen fitness, each pathogen isolate was recovered on a BHIS agar plate and incubated anaerobically at 37 °C for 48 h. A starter culture (1 mL) of BSG was inoculated with C. difficile and grown for 15 h. This starter culture was then used to inoculate a BSG sub-culture (1 mL) at a final dilution of 1:10. This sub-culture was grown for 3 h to an OD600~0.5 before being used to inoculate experimental cultures at a final dilution of 1:50. The experimental media consisted of a modified YCFA media (mYCFA; casitone (2.5 g/L), yeast extract (0.625 g/L), cysteine (0.5 g/L), magnesium sulfate heptahydrate (f.c. 365 μM), calcium chloride dihydrate (f.c. 610 μM), sodium bicarbonate (4 g/L), dipotassium phosphate (0.45 g/L), monopotassium phosphate (0.45 g/L), sodium chloride (0.9 g/L), sodium acetate (2.71 g/L), Hemin (50 mg/L), Vitamin K1 (0.25 mg/L), ferrous sulfate (4 μg/mL), ATCC vitamin mix (1% v/v)) supplemented with glucose (15 mM, Sigma) plus each compound (150 μM) or glucose (15 mM, Sigma) plus DMSO (0.15%, Sigma). Bacterial growth was monitored by measuring the optical density at 600 nm (OD600) of each culture in a 384 well plate with an Epoch2 spectrophotometer (BioTek Instruments) and MicroPlate stacker (Agilent BioTek) for 24 hours.

| SMILES | liberation of aglycone from polyphenolic glycoside (B. uniformis) | selective killing of C. difficile (C. difficile [1]) | anti-microbial effect on C. difficile in vivo (C. difficile [2]) | C. difficile burden in vivo (C. difficile [2]) | growth inhibition of Clostridioides difficile (C. difficile isolates; 150 μM, 20 C. difficile isolates, growth ratio (AUC) vs vehicle (FIG. 3B)) | killing / growth inhibition of diverse C. difficile isolates (C. difficile isolates; in vitro, media plus compound, culture optical density (FIG. 4)) |
| --- | --- | --- | --- | --- | --- | --- |
| O=C(CCc1ccc(O)cc1)c1c(O)cc(O)cc1O [phloretin] | liberates phloretin and resveratrol from their natural prodrugs in vitro | selectively kill the enteric pathogen C. difficile; also recorded: selectively kill hypervirulent C. difficile | potent anti-microbial effects on C. difficile in vivo | decreases C. difficile burden |  |  |
| Oc1ccc(C=Cc2cc(O)cc(O)c2)cc1 [resveratrol] | liberates phloretin and resveratrol from their natural prodrugs in vitro | selectively kill the enteric pathogen C. difficile; also recorded: selectively kill hypervirulent C. difficile | potent anti-microbial effects on C. difficile in vivo | decreases C. difficile burden | showed growth inhibition of Clostridioides difficile; also recorded: universally anti-microbial against C. difficile | kills many diverse C. difficile isolates; also recorded: showed growth inhibition of C. difficile |
